{
  "source": "patent US20250129140A1",
  "about": "“ANTI-HCMV ANTIBODIES AND ANTIGEN-BINDING FRAGMENTS THEREOF” (ICAHN SCHOOL OF MEDICINE AT MOUNT SINAI, priority 2021, published 2025)",
  "system": "CMV TB40/E infected fibroblasts",
  "assay": "SCID mouse gelfoam implant model of CMV proliferation",
  "type": "in vivo, SCID mice",
  "conditions": "fully human mAbs 4 or 18 mg/kg, ganciclovir 50 mg/kg; i.p. every three days; day ten; versus isotype control",
  "description": "At day ten post-implantation, the cells were released from the gelfoam and DNA extracted from the cells was subjected to qPCR for the HCMV UL123 and β-actin genes. The relative CMV levels cells were determined from Ct values of qPCR analysis (in triplicate) from cells collected from three mice/treatment. Statistical tests were performed using ordinary one-way ANOVA with comparisons to isotype treated cells as a control and a Dunnett's post-test; **, p<0.01; ***, p<0.001; ****, p<0.0001.\nThe gelfoam was implanted subcutaneously in three mice per group. […] Treatments were administrated every three days for nine days. At day ten post-implant, the gelfoam was removed and cells were released from the gel foam by collagenase treatment. The total DNA was harvest from the cells, quantified, and subjected to qPCR for UL123 (CMV gene) and b-actin (housekeeping geen) using SYBR green to evaluate virus proliferation. The qPCR analysis was performed in triplicate from three animals to determine the Ct values for UL123 and b-actin to calculate the relative levels of CMV DNA from the gelfoam samples.",
  "data": [
    {"molecule": "Nc1nc(O)c2ncn(COC(CO)CO)c2n1", "note": "[ganciclovir, reference compound]", "values": [
      {"measurement": "CMV DNA levels (UL123 relative to β-actin, qPCR)", "result": "effective at decreasing CMV DNA levels"}
    ]}
  ]
}
